Results: patent publication US11208411B2, “Compositions and methods for treating parasitic diseases” (THE REGENTS OF THE UNIVERSITY OF CALIFORNIA, priority 2016, dated 2021)
Read-outs that look alike come from different tables or passages of the source.

Assays:
TgCDPK1 = TgCDPK1 (Toxoplasma gondii, UniProt Q9BJF5); assay: TgCDPK1 kinase assay, syntide-2 peptide-based ELISA; type: biochemical
[1] = tested on: T. gondii type I RH strain, 2F clone; assay: Inhibition of parasite growth in vitro in HFF monolayers (beta-Gal readout); type: cell-based
[2] = Stability in rat liver microsomes; type: in vitro ADME; conditions: 1 mM NADPH, read-out: Microsome Half-Life
Src = Src (Homo sapiens (Human), UniProt P12931); assay: Src kinase inhibition; type: biochemical; set-up: Src % Inhibition: concentration or dose not given beside the values
Chain of Src (P12931 whole entry, looked up): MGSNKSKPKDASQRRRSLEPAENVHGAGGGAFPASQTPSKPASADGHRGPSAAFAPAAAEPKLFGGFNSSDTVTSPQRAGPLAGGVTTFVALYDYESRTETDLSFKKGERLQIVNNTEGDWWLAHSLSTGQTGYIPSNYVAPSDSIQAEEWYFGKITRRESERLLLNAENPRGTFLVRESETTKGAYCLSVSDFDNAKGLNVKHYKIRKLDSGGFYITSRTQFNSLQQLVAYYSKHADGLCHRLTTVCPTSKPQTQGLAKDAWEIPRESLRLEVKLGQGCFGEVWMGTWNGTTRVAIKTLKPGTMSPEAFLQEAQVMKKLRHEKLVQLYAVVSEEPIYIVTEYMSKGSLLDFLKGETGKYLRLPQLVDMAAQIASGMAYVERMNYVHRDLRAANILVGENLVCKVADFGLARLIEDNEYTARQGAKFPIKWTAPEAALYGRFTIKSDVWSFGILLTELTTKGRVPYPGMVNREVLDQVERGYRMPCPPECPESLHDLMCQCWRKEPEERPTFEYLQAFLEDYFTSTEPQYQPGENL

In vivo pharmacokinetics = conditions: iv, 3 mg/kg
[3] = Toxoplasma gondii, 72 h; read-out: Parasite Growth EC50

Chain of TgCDPK1 (Q9BJF5 1-507): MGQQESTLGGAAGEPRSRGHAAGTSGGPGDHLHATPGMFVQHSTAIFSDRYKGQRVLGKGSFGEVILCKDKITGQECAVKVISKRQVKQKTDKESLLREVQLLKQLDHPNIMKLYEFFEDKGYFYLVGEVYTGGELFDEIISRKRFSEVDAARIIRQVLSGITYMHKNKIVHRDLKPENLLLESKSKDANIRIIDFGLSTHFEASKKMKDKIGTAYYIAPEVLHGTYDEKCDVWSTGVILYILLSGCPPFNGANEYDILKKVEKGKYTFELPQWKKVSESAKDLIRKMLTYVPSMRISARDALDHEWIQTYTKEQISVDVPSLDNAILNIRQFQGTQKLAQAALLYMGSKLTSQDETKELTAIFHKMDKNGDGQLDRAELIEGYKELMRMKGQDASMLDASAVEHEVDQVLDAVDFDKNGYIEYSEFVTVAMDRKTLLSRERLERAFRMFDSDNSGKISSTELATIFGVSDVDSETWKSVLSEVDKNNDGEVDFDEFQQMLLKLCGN

SMILES | Src % Inhibition (Src) [%] | other results
CC(C)(C)n1nc(Cc2csc3ccccc23)c2c(N)ncnc21 [CZ43, 3-(benzo[b]thiophen-3-ylmethyl)-1-(tert-butyl)-1H-pyrazolo[3,4-d]pyrimidin-4-amine] | 28.21 | IC50 (TgCDPK1): 0.00745 µM; EC50 [1, 3]: 0.135 µM; half-life [2]: 2.5 min; IC50 (Src): 0.014 µM
CC(C)(C)n1nc(Cc2cc(F)cc(F)c2)c2c(N)ncnc21 [CZ75, 1-(tert-butyl)-3-(3,5-difluorobenzyl)-1H-pyrazolo[3,4-d]pyrimidin-4-amine] | 91.31 | 
CC(C)(C)n1nc(Cc2cccc(Cl)c2)c2c(N)ncnc21 [Compound 3CIB-PP1, 1-(tert-butyl)-3-(3-chlorobenzyl)-1H-pyrazolo[3,4-d]pyrimidin-4-amine, reference compound] | 18.48 | 
Nc1ncnc2c1c(Oc1cccc(Cl)c1)nn2Cc1ccncc1 [FUR6-6, 3-(3-chlorophenoxy)-1-(pyridin-4-ylmethyl)-1H-pyrazolo[3,4-d]pyrimidin-4-amine] | 93.91 | 
Nc1ncnc2c1c(Oc1cccc(Cl)c1)nn2CC1CCCNC1 (stereo not shown) [FUR6-11, 3-(3-chlorophenoxy)-1-(piperidin-3-ylmethyl)-1H-pyrazolo[3,4-d]pyrimidin-4-amine] | 90.05 | 
Nc1ncnc2c1c(Oc1cccc(Cl)c1)nn2CC1CNC1 [FUR6-12, 1-(azetidin-3-ylmethyl)-3-(3-chlorophenoxy)-1H-pyrazolo[3,4-d]pyrimidin-4-amine] | 91.81 | 
Nc1ncnc2c1c(Oc1cccc(Cl)c1)nn2CC1CCNC1 (stereo not shown) [FUR6-13, 3-(3-chlorophenoxy)-1-(pyrrolidin-3-ylmethyl)-H-pyrazolo[3,4-d]pyrimidin-4-amine] | 99.50 | 
Nc1ncnc2c1c(Cc1c[nH]c3ccccc13)nn2CC1CCNCC1 [FUR6-95, 3-((1H-indol-3-yl)methyl)-1-(piperidin-4-ylmethyl)-1H-pyrazolo[3,4-d]pyrimidin-4-amine] | 92.70 | IC50 (TgCDPK1): 0.0239 µM; EC50 [1, 3]: > 10 µM; half-life [2]: > 60 min; IC50 (Src): > 10 µM
Nc1ncnc2c1c(Cc1cccc(Cl)c1)nn2CC1CCNCC1 [FUR6-157, 3-(3-chlorobenzyl)-1-(piperidin-4-ylmethyl)-1H-pyrazolo[3,4-d]pyrimidin-4-amine] | 87.11 | 
CC(C)(C)n1nc(Sc2c[nH]c3ccccc23)c2c(N)ncnc21 [FUR6-159, 3-((1H-indol-3-yl)thio)-1-(tert-butyl)-1H-pyrazolo[3,4-d]pyrimidin-4-amine] | 97.66 | IC50 (TgCDPK1): 0.202 µM; EC50 [1, 3]: > 10 µM; half-life [2]: 2.6 min; IC50 (Src): > 10 µM
Nc1ncnc2c1c(Oc1cccc(Cl)c1)nn2CC1(C(F)(F)F)CC1 [FUR7-2, 3-(3-chlorophenoxy)-1-((1-(trifluoromethyl)cyclopropyl)methyl)-1H-pyrazolo[3,4-d]pyrimidin-4-amine] | 91.63 | 
Nc1ncnc2c1c(Oc1cccc(Cl)c1)nn2CC1CCNCC1(F)F (stereo not shown) [FUR7-27, 3-(3-chlorophenoxy)-1-((3,3-difluoropiperidin-4-yl)methyl)-1H-pyrazolo[3,4-d]pyrimidin-4-amine] | 87.87 | 
CN1CCC(Cn2nc(Oc3cccc(Cl)c3)c3c(N)ncnc32)CC1 [FUR7-30, 3-(3-chlorophenoxy)-1-((1-methylpiperidin-4-yl)methyl)-1H-pyrazolo[3,4-d]pyrimidin-4-amine] | 96.94 | 
Nc1ncnc2c1c(Oc1cccc(Cl)c1)nn2CC1CCNC(=O)C1 (stereo not shown) [FUR7-36, 4-((4-amino-3-(3-chlorophenoxy)-1H-pyrazolo[3,4-d]pyrimidin-1-yl)methyl)piperidin-2-one] | 96.13 | 
Cc1cccc(Sc2nn(C(C)(C)C)c3ncnc(N)c23)c1 [FUR7-68, 1-(tert-butyl)-3-(m-tolylthio)-1H-pyrazolo[3,4-d]pyrimidin-4-amine] | 64.39 | IC50 (TgCDPK1): 0.0229 µM; EC50 [1, 3]: 0.376 µM; half-life [2]: 1 min; IC50 (Src): > 10 µM
Cc1cccc(Sc2nn(CC3CCNCC3)c3ncnc(N)c23)c1 [FUR7-77, 1-(piperidin-4-ylmethyl)-3-(m-tolylthio)-1H-pyrazolo[3,4-d]pyrimidin-4-amine] | 80.21 | 
Nc1ncnc2c1c(Oc1cccc(Cl)c1)nn2CC1CCOCC1 [FUR7-89, 3-(3-chlorophenoxy)-1-((tetrahydro-2H-pyran-4-yl)methyl)-1H-pyrazolo[3,4-d]pyrimidin-4-amine] | 77.33 | 
Nc1ncnc2c1c(Sc1cccc(Cl)c1)nn2CC1CCNCC1 [FUR 5-56] | 102.82 | 

SMILES | Src % Inhibition (Src) [%] | other results
Nc1ncnc2c1c(Sc1c[nH]c3ccccc13)nn2CC1CCNCC1 [FUR 5-57, 3-((1H-indol-3-yl)thio)-1-(piperidin-4-ylmethyl)-1H-pyrazolo[3,4-d]pyrimidin-4-amine] |  | half-life [2]: 12 min
Nc1ncnc2c1c(Sc1cccc(Cl)c1)cn2CC1CCNCC1 [FUR 6-139, 5-((3-chlorophenyl)thio)-7-(piperidin-4-ylmethyl)-7H-pyrrolo[2,3-d]pyrimidin-4-amine] | 97.49 | 
Nc1ncnc2c1c(Sc1cccc(Cl)c1)nn2CC1CCNCC1(F)F (stereo not shown) [FUR 7-76] | 76.47 | 
Cc1cccc(Oc2nn(C(C)(C)C)c3ncnc(N)c23)c1 [GXJ176, 1-(tert-butyl)-3-(m-tolyloxy)-1H-pyrazolo[3,4-d]pyrimidin-4-amine] | 84.24 | 
CC(C)(C)n1nc(Oc2cccc(Br)c2)c2c(N)ncnc21 [GXJ177, 3-(3-bromophenoxy)-1-(tert-butyl)-1H-pyrazolo[3,4-d]pyrimidin-4-amine] | 73.35 | 
CC(C)(C)n1nc(Oc2cccc(C(F)(F)F)c2)c2c(N)ncnc21 [GXJ178, 1-(tert-butyl)-3-(3-(trifluoromethyl)phenoxy)-1H-pyrazolo[3,4-d]pyrimidin-4-amine] | 79.53 | 
CC(C)(C)n1nc(Oc2cccc(Cl)c2)c2c(N)ncnc21 [GXJ184, 1-(tert-butyl)-3-(3-chlorophenoxy)-1H-pyrazolo[3,4-d]pyrimidin-4-amine] | 79.94 | Co (initial conc.) (In vivo pharmacokinetics): 5471.09 ng/mL
CC(C)(C)n1nc(Sc2cccc(Cl)c2)c2c(N)ncnc21 [GXJ186, 1-(tert-butyl)-3-((3-chlorophenyl)thio)-1H-pyrazolo[3,4-d]pyrimidin-4-amine] | 72.84 | 
CC(C)(C)n1nc(Oc2cc(F)cc(F)c2)c2c(N)ncnc21 [GXJ229, 1-(tert-butyl)-3-(3,5-difluorophenoxy)-1H-pyrazolo[3,4-d]pyrimidin-4-amine] | 87.48 | 
COc1cccc(Oc2nn(C(C)(C)C)c3ncnc(N)c23)c1 [GXJ230, 1-(tert-butyl)-3-(3-methoxyphenoxy)-1H-pyrazolo[3,4-d]pyrimidin-4-amine] | 77.53 | 
Nc1ncnc2c1c(Oc1cccc(Cl)c1)nn2CC1CCNCC1 [GXJ237, 3-(3-chlorophenoxy)-1-(piperidin-4-ylmethyl)-1H-pyrazolo[3,4-d]pyrimidin-4-amine] | 87.87 | 
Nc1ncnc2c1c(Oc1ccc(F)c(Cl)c1)nn2CC1CCNCC1 [GXJ261, 3-(3-chloro-4-fluorophenoxy)-1-(piperidin-4-ylmethyl)-1H-pyrazolo[3,4-d]pyrimidin-4-amine] | 78.16 | 
Nc1ncnc2c1c(Nc1cccc(Cl)c1)nn2CC1CCNCC1 [GXJ276, N^3-(3-chlorophenyl)-1-(piperidin-4-ylmethyl)-1H-pyrazolo[3,4-d]pyrimidine-3,4-diamine] | 24.50 | 
CC(C)(C)n1nc(Cc2c[nH]c3ccccc23)c2c(N)ncnc21 [LJQ-138, 3-((1H-indol-3-yl)methyl)-1-(tert-butyl)-1H-pyrazolo[3,4-d]pyrimidin-4-amine] | 74.94 | IC50 (TgCDPK1): 0.0123 µM; EC50 [1, 3]: 0.177 µM; half-life [2]: 2 min; IC50 (Src): > 10 µM
CC(C)(C)n1nc(Cc2coc3ccccc23)c2c(N)ncnc21 [LJQ-145, 3-(benzofuran-3-ylmethyl)-1-(tert-butyl)-1H-pyrazolo[3,4-d]pyrimidin-4-amine] | 36.04 | IC50 (TgCDPK1): 0.0237 µM; EC50 [1, 3]: 2.03 µM; half-life [2]: 1.7 min
CC(C)(C)n1nc(Nc2cccc(Cl)c2)c2c(N)ncnc21 [LZH118, 1-(tert-butyl)-N^3-(3-chlorophenyl)-1H-pyrazolo[3,4-d]pyrimidine-3,4-diamine] | 21.86 | 
Nc1ncnc2c1c(Cc1cc(F)cc(F)c1)nn2CC1CCNCC1 [MLC468, 3-(3,5-difluorobenzyl)-1-(piperidin-4-ylmethyl)-1H-pyrazolo[3,4-d]pyrimidin-4-amine] | 94.97 | 
Nc1ncnc2c1c(Cc1c[nH]c3ccccc13)nn2CC1(C(F)(F)F)CC1 [WXT-2, 3-((1H-indol-3-yl)methyl)-1-((1-(trifluoromethyl)cyclopropyl)methyl)-1H-pyrazolo[3,4-d]pyrimidin-4-amine] | 96.00 | IC50 (TgCDPK1): 0.0381 µM; EC50 ([1]; Toxoplasma gondii, 72 h, read-out: Parasite Growth EC50): 0.206 µM; half-life [2]: 4.7 min; IC50 (Src): > 10 µM
